Test results from patent US5116960A, “Amphotericin B derivatives” (Beecham Group p.l.c., priority 1988, dated 1992).
Converted amounts (≈) assume the structure as drawn.

What was measured:
Candida albicans 73/079 = test: Minimum Inhibitory Concentration (MIC) by broth dilution in microtitre tray, Candida albicans 73/079; assay type: cell-based; conditions: 37° C., inoculum 10^5
Experimental: (§1) The Minimum Inhibitory Concentration (MIC) was determined by diluting the test compound in a broth medium in a microtitre tray. The organisms, which had been grown previously in a broth medium (yeast nitrogen base+1% glucose), were diluted and added to the wells to provide a final inoculum of approximately 10^5 colony-forming units per well. The trays were incubated at 37° C. and the turbidity of each well noted at intervals. The MIC was taken as the lowest concentration (in μg/ml) which prevented significant growth. |Minimum Inhibitory Concentration (μg/ml) |(determined after 2 and 3 days incubation) | *Inoculum 10^5 cells/ml

[1] = system: Candida parapsilosis 937 A; test: Minimum Inhibitory Concentration (MIC) by broth dilution in microtitre tray, Candida parapsilosis 937 A; assay type: cell-based; conditions: 37° C., inoculum 10^5
Experimental: as §1

[2] = 48 h, Candida albicans 73/079, determined after 2 days incubation
[3] = 72 h, Candida albicans 73/079, determined after 3 days incubation
[4] = 48 h, determined after 2 days incubation
[5] = 72 h, determined after 3 days incubation

MIC (Candida albicans 73/079; [2]) [µg/mL]	MIC (Candida albicans 73/079; [3]) [µg/mL]	MIC [1, 4] [µg/mL]	MIC [1, 5] [µg/mL]	Structure (SMILES)
2 (≈ 2.21 µM)	4 (≈ 4.41 µM)	4 (≈ 4.41 µM)	8 (≈ 8.83 µM)	C[C@@H]1[C@H](O)[C@@H](C)/C=C/C=C/C=C/C=C/C=C/C=C/C=C/[C@H](O[C@@H]2O[C@H](C)[C@@H](O)[C@H](N)[C@@H]2O)C[C@@H]2OC(=C[C@H](O)[C@H]2C(=O)O)C[C@@H](O)C[C@@H](O)[C@H](O)CC[C@@H](O)C[C@@H](O)CC(=O)O[C@H]1C [Example E6, 13,14-Anhydroamphotericin B]
16 (≈ 17.4 µM)	32 (≈ 34.8 µM)	32 (≈ 34.8 µM)	32 (≈ 34.8 µM)	COC(=O)[C@H]1[C@@H]2C[C@@H](O[C@@H]3O[C@H](C)[C@@H](O)[C@H](N)[C@@H]3O)/C=C/C=C/C=C/C=C/C=C/C=C/C=C/[C@H](C)[C@@H](O)[C@@H](C)[C@H](C)OC(=O)C[C@H](O)C[C@H](O)CC[C@@H](O)[C@H](O)C[C@H](O)CC(=C[C@@H]1O)O2 [Example E10]
4 (≈ 4.48 µM)	8 (≈ 8.97 µM)	8 (≈ 8.97 µM)	16 (≈ 17.9 µM)	C[C@@H]1[C@H](O)[C@@H](C)/C=C/C=C/C=C/C=C/C=C/C=C/C=C/[C@H](O[C@@H]2O[C@H](C)[C@@H](O)[C@H](N)[C@@H]2O)C[C@@H]2OC(=C[C@H](O)[C@H]2CO)C[C@@H](O)C[C@@H](O)[C@H](O)CC[C@@H](O)C[C@@H](O)CC(=O)O[C@H]1C [Example E12]
